“And” between values parts separate entries of the source, which are not always exact repeats. Identical values can stand only once. “Also recorded” adds a separate entry of the source.
Test system: endotoxin-induced lung injury
Experiment: porcine model of LPS-induced acute lung injury: haemodynamics, ventilation/mechanics, blood gases, P/F, chemistry, temperature, survival
Type: in vivo, pig
Set-up: AF baseline / AF end / Ven. sat end: unit not given here; PaO2 3 h / PaO2 6 h: unit: kPa
Method: The animals were bred for purpose at the Forslunda Agricultural School in Umeå, Sweden. The pigs were pairwise kept in 8 m^2 pens before start of experiments and were fed twice daily with a commercially available pig diet without antimicrobials, and with free access to water. Photoperiods were 12:12 h light:dark. Room temperature in their stall was 20 °C ± 1 °C.
After overnight fasting, but with free access to water and hay, animals were pre-medicated with ketamine (Ketaminol vet® 100 mg/mL; Intervet International B.V, Boxmeer, Netherlands), xylazine (Rompun® vet 20 mg/mL; Bayer Animal Health, Copenhagen, Denmark) and atropine (Atropin Mylan 0.5 mg/mL; Mylan AB, Stockholm, Sweden) by intramuscular injection before an auricular vein was cannulated. Anesthesia was induced with ketamine and midazolam (Midazolam Hameln 5 mg/mL, Hameln Pharmaceuticals, Hameln, Germany) and maintained with ketamine, midazolam, xylazine and fentanyl (Fentanyl 0.05 mg/mL, B. Braun Medical AB, Danderyd, Sweden). The animals were orotracheally intubated and ventilated with tidal volume 8–9 mL/kg, PEEP 8 cmH2O, and a respiratory rate set to achieve an end-tidal carbon dioxide of 5–5.5 kPa.
One animal served as a pharmacokinetic pilot, with arterial and venous catheters placed in a cut-down in the neck. The remaining 21 animals were used for the randomized study (Figure 1). After intubation and start of mechanical ventilation, a second auricular vein cannula was placed and infusion of either AEPU or placebo according to randomization was started. After 2 h of infusion of AEPU or placebo, an infusion of LPS was started. A bolus of 0.1 mg/kg was administered during 30 min after which the infusion rate was adjusted to 0.01 mg/kg/h. During the time between start of AEPU or placebo and LPS infusion, neck dissection was performed, exposing the v jugularis externa and carotid artery. A pulmonary artery introducer and an arterial cannula were placed in vein and artery respectively, and a pulmonary artery catheter introduced through the introducer and the tip placed in the correct position in the pulmonary artery placement guided by continuous invasive pressure monitoring or, when difficult, assisted by fluoroscopy. All surgical procedures were performed under sterile conditions.
AEPU was synthesized according to Kim et al. ([Kim et al., 2007]), delivered in 60 mg vials and dissolved in 30 mL pure ethanol as a co-solvent, of which either 20 mL was added to 980 mL of sodium chloride 9 mg/mL or 8 mL–392 mL sodium chloride, creating a solution of 0.04 mg/mL AEPU and 2% ethanol. The placebo infusion was prepared by adding either 20 mL of pure ethanol to 980 mL of sodium chloride 9 mg/mL or 8 mL of pure ethanol to 392 mL sodium chloride, creating a 2% ethanol solution. Each animal received an infusion of either 0.1 mg/kg/h AEPU or the corresponding volume of placebo solution.
A total of 200 mg of prefabricated lipopolysaccharides (LPS, Escherichia coli serotype 0,111:B4, Sigma-Aldrich (Product no L4130), St. Louis, MO, United States of America) was dissolved in 40 mL of sterile water, carefully mixed and filtered, creating a solution of 5 mg/mL. This preparation was stored frozen (−20 °C) in 1 mL partitions. For each animal, 2 mL of the thawed solution was mixed and diluted in 18 mL of sodium chloride, finally creating a 0.5 mg/mL LPS solution for infusion.
All animals were monitored with pulse oximetry, heart rate, ECG, systemic arterial blood pressure (ABP), pulmonary arterial pressure (PAP), central venous pressure (CVP) temperature, tidal volumes, respiratory rate and end tidal carbon dioxide. At baseline, and at 3 h, 6 h and at the end of the experiment, pulmonary capillary wedge pressure (PCWP) was measured together with arterial and venous blood gas analyses, as well as cardiac output calculations. […]

[1] = 3 h, individual animals, listed as sEH-i 950
[2] = 6 h, individual animals, listed as sEH-i 950
[3] = Lungmekanik, 3 h, individual animals, listed as sEH-i 950
[4] = Lungmekanik, 6 h, individual animals, listed as sEH-i 950
[5] = Lungmekanik, baseline, individual animals, listed as sEH-i 950
[6] = Lungmekanik, end, individual animals, listed as sEH-i 950
[7] = baseline, individual animals, listed as sEH-i 950
[8] = end, individual animals, listed as sEH-i 950
[9] = individual animals, 3 h, listed as sEH-i 950

In the case of `CCOCCOCCOCCCCCNC(=O)NC12CC3CC(CC(C3)C1)C2` [Compound 950], the “AF 3 h” value [1] is reported as 41 and 50 and 42 and 48 and 30 and 45 and 39 and 44 and 40, the “FiO2 3 h” value [1] is reported as 0.4 and 0.5 and the “PaO2 3 h” value [1] is reported as 22.1 and 20.1 and 17 and 22.7 and 19.3 and 16.7 and 9 and 8.1 and 7.3 and 14.7. For the same molecule, the “AF 6 h” value [2] was 40 and 54 and 50 and 48 and 30 and 45 and 39 and 44, the “FiO2 6 h” value [2] was 0.4 and 0.5 and 0.8 and 0.7 and 1 and the “PaO2 6 h” value [2] was 19.6 and 12.3 and 11.8 and 18.6 and 18.5 and 14.7 and 8.7 and 9.4 and 6.8 and 7.9. For the same molecule, the “lung injury development in LPS treated pigs” value (AEPU 0.1 mg/kg/h infusion vs placebo) was “did not attenuate”, the Premature death (AEPU group, did not survive entire protocol) was 40% and the “Mortalitet: Aktivt avslut” value (Ja = actively terminated, Nej = died, individual animals, listed as sEH-i 950) was “Nej and Ja and Nej*”. For the same molecule, the “PIP 3 h” value [3] was 31 cmH2O and 28 cmH2O and 32 cmH2O and 24 cmH2O and 26 cmH2O and 34 cmH2O and 39 cmH2O and 44 cmH2O and 36 cmH2O, the “Pmedel 3 h” value [3] was 14 cmH2O and 15 cmH2O and 12 cmH2O and 13 cmH2O and 16 cmH2O and 17 cmH2O and the “Pplat 3 h” value [3] was 26 cmH2O and 23 cmH2O and 22 cmH2O and 27 cmH2O and 28 cmH2O and 25 cmH2O and 34 cmH2O and 33 cmH2O. For the same molecule, the “PIP 6 h” value [4] was 32 cmH2O and 33 cmH2O and 28 cmH2O and 30 cmH2O and 22 cmH2O, the “Pmedel 6 h” value [4] was 13 cmH2O and 15 cmH2O and 14 cmH2O and 12 cmH2O and the “Pplat 6 h” value [4] was 27 cmH2O and 26 cmH2O and 23 cmH2O and 21 cmH2O and 18 cmH2O. The PIP baseline [5] was 25 cmH2O and 23 cmH2O and 19 cmH2O and 24 cmH2O and 26 cmH2O and 27 cmH2O, the Pmedel baseline [5] was 12 cmH2O and 15 cmH2O and 13 cmH2O and 11 cmH2O and 14 cmH2O and the Pplat baseline [5] was 19 cmH2O and 16 cmH2O and 18 cmH2O and 22 cmH2O and 17 cmH2O. For the same molecule, the PIP end [6] was 30 cmH2O and 37 cmH2O and 29 cmH2O and 28 cmH2O and 46 cmH2O, the Pmedel end [6] was 13 cmH2O and 16 cmH2O and 14 cmH2O and the Pplat end [6] was 24 cmH2O and 29 cmH2O and 22 cmH2O and 28 cmH2O. The “PaO2/FiO2 3h” value (P/F-kvot, 3 h, individual animals, listed as sEH-i 950) was 55.25 and 40.2 and 42.5 and 56.75 and 48.25 and 41.75 and 22.5 and 16.2 and 18.25 and 36.75, the “PaO2/FiO2 6h” value (P/F-kvot, 6 h, individual animals, listed as sEH-i 950) was 49 and 24.6 and 23.6 and 46.5 and 46.25 and 36.75 and 10.87 and 13.43 and 6.8 and 19.75 and the PaO2/FiO2 baseline (P/F-kvot, baseline, individual animals, listed as sEH-i 950) was 73.75 and 71.5 and 73 and 67 and 72.75 and 65.25 and 70.5 and 72.25 and 61.75 and 74.75. The PaO2/FiO2 end (P/F-kvot, end, individual animals, listed as sEH-i 950) was 49.75 and 16.75 and 24 and 48.75 and 30.5 and 4.4 and 8.7, the FiO2 baseline (baseline, individual animals) was 0.4 and the AF baseline [7] was 40 and 42 and 26 and 34 and 46. The PaO2 baseline [7] was 29.5 and 28.6 and 29.2 and 26.8 and 29.1 and 26.1 and 28.2 and 28.9 and 24.7 and 29.9, the “Mortalitet: Dödsorsak” value (cause of death, individual animals, listed as sEH-i 950) was “Cirkulationssvikt; also recorded: Adrenalinet tog slut…; also recorded: *Tubbyte/Hypoxi; also recorded: Lungsvikt/Hypoxi” and the “P/F 3h - baseline” value (change of P/F from baseline to 3 h, individual animals, listed as sEH-i 950) was -18.5 and -31.3 and -30.5 and -10.25 and -24.5 and -23.5 and -48 and -56.05 and -43.5 and -38. The “P/F 6h - baseline” value (change of P/F from baseline to 6 h, individual animals, listed as sEH-i 950) was -24.75 and -46.9 and -49.4 and -20.5 and -26.5 and -28.5 and -59.625 and -58.8214 and -54.95 and -55, the “P/F 9h- baseline” value (change of P/F from baseline to 9 h (end), individual animals, listed as sEH-i 950) was -24 and -54.75 and -49 and -18.25 and -34.75 and -66.1 and -63.55 and the “Mortalitet, kommentarer” value (comments on clinical course, individual animals, listed as sEH-i 950) was “Instabil. Död i högersvikt 16.20 trots adrenalin; also recorded: Tidig start adrenalininf pga lågt CO; also recorded: Mycket svårt septisk. Extrema doser adrenalin; also recorded: Mycket svårt septisk. Högersvikt; also recorded: Relativt stabil. Nästan frisk i slutet; also recorded: Försök till tubbyte -> hypoxi + död; also recorded: Standardupplägg. Ter sig septisk redan vid induktion; also recorded: Svårt septisk redan från första början. Instabil. Död i cirkulationssvikt något i förtid. Misslyckad deff; also recorded: Septisk. Kräver adrenalininf. Uttalad lungskada. Lågt CO på slutet. Högdos adrenalin. Svår hjärtsvikt; also recorded: Svår sepsis med ffa svår lungsvikt. Mors i hypoxi efter 6 h. Sista prov (6h) några minuter före död. PSVT upprepat med självterminerande vid LPS-bolus”. For the same molecule, the Fluid administration total (end of experiment, AEPU group) was 5785 (5080–7210) mL, the Urine output (end of experiment, AEPU group) was 700 (320–1200) mL and the AF end [8] was 40 and 54 and 50 and 48 and 45 and 39 and 44. For the same molecule, the FiO2 end [8] was 0.4 and 0.8 and 0.5 and 1, the PaO2 end [8] was 19.9 and 13.4 and 12 and 19.5 and 12.2 and 4.4 and 8.7 and the “CO 3 h” value [9] was 3.2 L/min and 5.3 L/min and 3.6 L/min and 3.3 L/min and 5.7 L/min and 3.1 L/min and 4.2 L/min. The “CVP 3 h” value [9] was 15 mmHg and 21 mmHg and 14 mmHg and 10 mmHg and 17 mmHg and 18 mmHg and 13 mmHg and 16 mmHg, the “HR 3 h” value [9] was 141 and 137 and 175 and 135 and 140 and 119 and 162 and 144 and 164 and 114 and the “MAP 3 h” value [9] was 110 mmHg and 107 mmHg and 58 mmHg and 72 mmHg and 94 mmHg and 79 mmHg and 88 mmHg and 106 mmHg and 52 mmHg and 99 mmHg. For the same molecule, the “MPAP 3 h” value [9] was 65 mmHg and 39 mmHg and 41 mmHg and 43 mmHg and 46 mmHg and 47 mmHg and 54 mmHg and 51 mmHg and 55 mmHg, the “PCWP 3 h” value [9] was 21 mmHg and 15 mmHg and 17 mmHg and 19 mmHg and the “PaCO2 3 h” value [9] was 4.9 kPa and 5.9 kPa and 6.6 kPa and 5.6 kPa and 6.5 kPa and 5.2 kPa and 5.7 kPa and 6.9 kPa and 7.7 kPa and 5.8 kPa.

Source: publication PMC12457078, “Inhibition of soluble epoxide hydrolase in endotoxin induced pig lung injury” (Frontiers in Pharmacology, 2025)
